Values quoted from earlier work in patent US8962668B2, “Treatment of length dependent neuropathy” (Arcion Therapeutics, Inc., priority 2005, dated 2015).

Tested on: patients with painful diabetic neuropathy

Compound: Clc1cccc(Cl)c1N=C1NCCN1 [clonidine]
- difference between clonidine transdermal patches and placebo patches (placebo-controlled cross-over pain trial (Zeigler et al.)): no statistically significant difference
- pain reduction relative to placebo (responders rechallenged, highest transdermal patch dosage, p<0.015): modest although statistically significant
- clonidine responders (transdermal patches, twelve of forty-one patients who completed initial course (Byas-Smith et al.)): 29%
